Measurements taken from patent publication US9073900B2, “Dihydroquinone derivatives of piperidine and piperazine” (KING FAHD UNIVERSITY OF PETROLEUM AND MINERALS, priority 2013, dated 2015).

melting point [°C]	Structure (SMILES)
166 to 167	O=C1NCc2ccc(C3CCN(Cc4cncc(C5=CCCC5)c4)CC3)cc2N1 [Compound 6f, 7-(1-((5-cyclopentenylpyridin-3-yl)methyl)piperidin-4-yl)-3,4-dihydroquinazolin-2(1H)-one]
160 to 161	O=C1NCc2ccc(C3CCN(Cc4ccc(-c5ccc(F)cc5)cc4)CC3)cc2N1 [Compound 6b, 7-(1-((4′-fluorobiphenyl-4-yl)methyl)piperidin-4-yl)-3,4-dihydroquinazolin-2(1H)-one]

More lines, now with the values behind:

Structure (SMILES)	melting point [°C]
O=C1NCc2ccc(N3CCN(Cc4cncc(C5=CCCC5)c4)CC3)cc2N1 [Compound 5f, 7-(4((5-cyclopentenylpyridin-3-yl)methyl)piperazin-1-yl)-3,4-dihydroquinazolin-2(1H)-one]	185 to 186
O=C1NCc2ccc(N3CCN(Cc4ccc(-c5ccccc5)cc4)CC3)cc2N1 [Compound 5a, 7-(4-(biphenyl-4-ylmethyl)piperazin-1-yl)-3,4-dihydroquinazolin-2(1H)-one]	134 to 135
O=C1NCc2ccc(N3CCN(Cc4ccc(-c5ccc(F)cc5)cc4)CC3)cc2N1 [Compound 5b, 7-(4-((4′-fluorobiphenyl-4-yl)methyl)piperazin-1-yl)-3,4-dihydroquinazolin-2(1H)-one]	220 to 221
O=C1NCc2ccc(N3CCN(Cc4cncc(-c5ccc(F)cc5)c4)CC3)cc2N1 [Compound 5d, 7-(4-((5-(4-fluorophenyl)pyridin-3-yl)methyl)piperazin-1-yl)-3,4-dihydroquinazolin-2(1H)-one]	180 to 181
